Broadly, the IC50 is the concentration needed to halve the response being measured. Higher therefore signals weaker potency.

Where only a bound is given, the exact number is not on record here.

This test deals with RAW264.7. The test can be described thus: Inhibition of COX2 mRNA expression in mouse RAW264.7 cells. The class given is functional, cell-based.

As to `O=c1c(O)c(-c2ccc(O)cc2)oc2cc(O)cc(O)c12` [KAEMPFEROL], the IC50 is less than 15 µM.
